The term IC50 denotes the concentration needed to halve the response being measured. A low value points to higher potency.

The assay deals with H1047R PIK3CA enzyme (Homo sapiens, UniProt P42336, H1047R). The experiment in a line: ADP-Glo Biochemical PIK3CA Kinase Assay. Background: In ADP-Glo the light output rises with the ADP produced.
Sequence of H1047R PIK3CA enzyme (P42336 whole entry H1047R): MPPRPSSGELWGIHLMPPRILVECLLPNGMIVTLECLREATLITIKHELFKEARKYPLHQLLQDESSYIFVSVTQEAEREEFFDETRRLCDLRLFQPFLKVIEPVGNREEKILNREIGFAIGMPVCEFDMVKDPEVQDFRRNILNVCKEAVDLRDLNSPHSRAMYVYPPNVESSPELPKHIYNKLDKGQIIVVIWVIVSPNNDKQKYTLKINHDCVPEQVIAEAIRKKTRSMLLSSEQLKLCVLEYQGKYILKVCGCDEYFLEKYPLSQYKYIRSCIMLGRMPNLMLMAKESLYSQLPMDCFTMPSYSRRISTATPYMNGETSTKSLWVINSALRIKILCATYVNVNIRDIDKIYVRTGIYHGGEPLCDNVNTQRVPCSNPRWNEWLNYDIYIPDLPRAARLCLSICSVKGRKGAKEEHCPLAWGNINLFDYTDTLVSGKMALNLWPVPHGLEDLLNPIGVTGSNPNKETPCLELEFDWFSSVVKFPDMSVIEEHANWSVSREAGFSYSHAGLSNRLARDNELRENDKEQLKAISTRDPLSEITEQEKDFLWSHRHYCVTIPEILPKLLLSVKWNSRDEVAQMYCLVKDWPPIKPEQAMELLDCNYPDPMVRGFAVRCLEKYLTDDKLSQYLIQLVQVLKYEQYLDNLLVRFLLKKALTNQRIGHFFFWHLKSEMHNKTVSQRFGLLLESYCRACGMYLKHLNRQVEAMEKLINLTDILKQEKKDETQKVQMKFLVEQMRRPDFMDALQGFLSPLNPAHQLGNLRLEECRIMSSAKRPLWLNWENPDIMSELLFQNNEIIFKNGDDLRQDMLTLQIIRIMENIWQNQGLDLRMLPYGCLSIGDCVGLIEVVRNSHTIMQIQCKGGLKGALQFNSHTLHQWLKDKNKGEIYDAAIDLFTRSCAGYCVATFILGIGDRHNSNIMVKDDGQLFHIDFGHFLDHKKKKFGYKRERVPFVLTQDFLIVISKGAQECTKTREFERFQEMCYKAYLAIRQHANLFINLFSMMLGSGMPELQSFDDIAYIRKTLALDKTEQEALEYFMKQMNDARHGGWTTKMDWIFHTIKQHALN
Sequence of H1047R PIK3CA enzyme (P27986 whole entry partner): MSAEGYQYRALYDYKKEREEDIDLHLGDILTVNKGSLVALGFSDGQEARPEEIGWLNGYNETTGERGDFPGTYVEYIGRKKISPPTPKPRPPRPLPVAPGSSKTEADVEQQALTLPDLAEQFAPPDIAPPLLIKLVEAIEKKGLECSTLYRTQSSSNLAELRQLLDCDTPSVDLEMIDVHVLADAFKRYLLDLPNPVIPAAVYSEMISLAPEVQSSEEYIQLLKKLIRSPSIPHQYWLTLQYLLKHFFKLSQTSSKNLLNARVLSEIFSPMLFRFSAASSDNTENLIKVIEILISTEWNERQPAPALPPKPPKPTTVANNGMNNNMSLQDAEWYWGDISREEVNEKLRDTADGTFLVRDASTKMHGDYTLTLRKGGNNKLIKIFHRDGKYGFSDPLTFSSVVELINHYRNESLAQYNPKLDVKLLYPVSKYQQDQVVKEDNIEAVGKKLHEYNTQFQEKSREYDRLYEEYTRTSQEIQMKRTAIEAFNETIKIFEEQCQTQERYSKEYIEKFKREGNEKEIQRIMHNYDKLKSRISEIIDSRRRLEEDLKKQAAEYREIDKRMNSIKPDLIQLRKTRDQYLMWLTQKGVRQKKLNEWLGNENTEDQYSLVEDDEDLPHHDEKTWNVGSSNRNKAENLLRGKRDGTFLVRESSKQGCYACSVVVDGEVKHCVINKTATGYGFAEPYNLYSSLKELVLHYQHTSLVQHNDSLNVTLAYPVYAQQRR
`Cn1ncc(-c2cc(NC(=O)c3cc(F)cc(C(F)(F)F)c3)c3c(c2)C(=O)NC3c2cc(F)ccc2Cl)c1C#N` (stereo not shown) [Compound I-1699] gave an IC50 of at most 0.1 µM.
The same measure for `O=C(Nc1cc(Br)cc2c1C(c1cc(F)ccc1Cl)NC2=O)c1cc(Cl)cc(Cl)c1` (stereo not shown) [Compound I-521]: at most 0.1 µM; for `O=C(Nc1cc(Br)cc2c1C(c1cc(F)ccc1Cl)NC2=O)c1ccnc(C(F)(F)F)c1` (stereo not shown) [Compound I-523]: 10 to 100 µM.
Take `NC(=O)CCN(C(=O)c1cc(F)cc(C(F)(F)F)c1)c1cc(O)cc2c1C(c1cc(F)ccc1Cl)NC2=O` (stereo not shown) [Compound I-2309]: the IC50 lay within 10 to 100 µM.
`O=C(Nc1cccc2c1C(CC1CCCC1)NC2=O)c1cc(F)cc(C(F)(F)F)c1` (stereo not shown) [Compound I-2109] yielded an IC50 of 1 to 10 µM.
`Cc1ccccc1C1NC(=O)c2cccc(NC(=O)c3cc(F)cc4c(C(=O)C(F)(F)F)c[nH]c34)c21` (stereo not shown) [Compound I-408]: the IC50 is 10 to 100 µM.
Take `O=C1CCC[C@@H]([C@H]2NC(=O)c3cccc(NC(=O)c4cc(F)cc(C(F)(F)F)c4)c32)C1` (single isomer, unassigned) [Compound I-2253]: the IC50 is 10 to 100 µM.
Compound `Nc1nc2cc(-c3cc(NC(=O)c4cc(F)cc(C(F)(F)F)c4)c4c(c3)C(=O)N[C@@H]4c3cc(F)ccc3Cl)ccn2n1` [Compound I-1446] showed an IC50 of at most 0.1 µM.
Compound `O=C(Nc1cc(-c2ccc3nccn3c2)cc2c1[C@H](c1cc(F)ccc1Cl)NC2=O)c1cc(F)cc(C(F)(F)F)c1` [Compound I-827] displayed an IC50 of at most 0.1 µM.
The same measure for `O=C(NCC(F)F)Nc1cc(NC(=O)c2cc(F)cc(C(F)(F)F)c2)c2c(c1)C(=O)NC2c1cc(F)ccc1Cl` (stereo not shown) [Compound I-510]: at most 0.1 µM; for `O=C1NC(c2cc(F)ccc2Cl)c2c(NC(=O)C3CCCC(O)(C(F)(F)F)C3)cccc21` (stereo not shown) [Compound I-2136]: 10 to 100 µM; for `O=C(Nc1cccc2c1C(c1cc(Cl)cc(F)c1F)NC2=O)c1cc(F)cc(C(F)(F)F)c1` (stereo not shown) [Compound I-401]: 0.1 to 0.5 µM.
As for `O=C(Nc1cc(-c2cncc3ccccc23)cc2c1C(c1cc(F)ccc1Cl)NC2=O)c1cc(F)cc(C(F)(F)F)c1` (stereo not shown) [Compound I-852], the figure is at most 0.1 µM; as for `O=C(Nc1cc(NC2CCC2(F)F)cc2c1C(c1cc(F)ccc1Cl)NC2=O)c1cc(F)cc(C(F)(F)F)c1` (stereo not shown) [Compound I-530], at most 0.1 µM; as for `Cc1ccccc1C1NC(=O)c2c(C#N)ccc(NC(=O)c3cc(F)cc(C(F)(F)F)c3)c21` (stereo not shown) [Compound I-313], 0.1 to 0.5 µM.
`CC(=O)N[C@H]1CCC[C@H](C(=O)Nc2cc(-c3ccc4ncnn4c3)cc3c2C(c2cc(F)ccc2Cl)NC3=O)C1` (mixture of isomers) [Compound I-1843] displayed an IC50 of 10 to 100 µM.
The compound `CNc1cc(Nc2csc3ccccc23)cc2c1C(=O)NC2c1ccccc1C` (stereo not shown) [Compound I-77] came in with a concentration for half-maximal inhibition (IC50) of 1 to 10 µM.
As for `O=C(O)Cc1cc(NC(=O)c2cc(F)cc(C(F)(F)F)c2)c2c(c1)C(=O)NC2c1cc(F)ccc1Cl` (stereo not shown) [Compound I-399], the IC50 was at most 0.1 µM.
Compound `O=C1NC(c2cc(F)ccc2Cl)c2c(NC(=O)c3cc(C(F)(F)F)cc(F)c3C3(O)COC3)cccc21` (stereo not shown) [Compound I-1114] came in with an IC50 of 1 to 10 µM.
Take `O=C(Nc1cccc2c1C(c1ccc3ccccc3c1)NC2=O)c1cc(F)cc(C(F)(F)F)c1` (stereo not shown) [Compound I-371]: the IC50 lay in the range of 10 to 100 µM.
As for `O=C1NC(c2cc(F)ccc2Cl)c2c(NC(=O)C3CCC4C(C3)C4(F)F)cc(Br)cc21` (stereo not shown) [Compound I-1623], the figure is 1 to 10 µM; as for `COc1cccc(C(=O)Nc2cc(Br)cc3c2C(c2cc(F)ccc2Cl)NC3=O)c1` (stereo not shown) [Compound I-469], 10 to 100 µM.
Consider `O=C1N[C@@H](c2cc(F)ccc2Cl)c2c(NC(=O)N3C[C@@](O)(C(F)(F)F)c4cc(F)ccc43)ccnc21` (single isomer, unassigned) [Compound I-2700], for which the IC50 lay within 1 to 10 µM.
In the case of `Cc1ccccc1C1NC(=O)c2c(C(=O)NCC(N)=O)ccc(NC(=O)c3nsc4ccccc34)c21` (stereo not shown) [Compound I-261], the IC50 was at most 0.1 µM.
`Cc1c(-c2cc(NC(=O)c3cc(F)cc(C(F)(F)F)c3)c3c(c2)C(=O)NC3c2cc(F)ccc2Cl)ccc2ncnn12` (stereo not shown) [Compound I-1825] returned an IC50 of at most 0.1 µM.
The compound `N#CCc1cc(NC(=O)N2C[C@H](O)c3cc(F)ccc32)c2c(c1)C(=O)N[C@H]2c1cc(F)ccc1Cl` (single isomer, unassigned) [Compound I-2539] returned an IC50 of 1 to 10 µM.
For `O=C(Nc1cc(-c2ccc3c(c2)OC(F)(F)O3)cc2c1C(c1cc(F)ccc1Cl)NC2=O)c1cc(F)cc(C(F)(F)F)c1` (stereo not shown) [Compound I-738], the IC50 is 0.1 to 0.5 µM.
In the case of `O=C1N[C@H](c2cccc(F)c2F)c2c(NC(=O)c3csc4ccccc34)ccnc21` [Compound I-23], the IC50 lay within 1 to 10 µM.
Consider `C[C@@](O)(CC#N)c1cc(NC(=O)c2cc(F)cc(C(F)(F)F)c2)c2c(c1)C(=O)N[C@H]2c1cc(F)ccc1Cl` (single isomer, unassigned) [Compound I-1395], for which the IC50 is at most 0.1 µM.
As to `O=C1N[C@H](c2cc(F)ccc2Cl)c2c(NC(=O)N3C[C@H](O)C[C@@H]3CC(F)(F)F)cccc21` (racemic) [Compound I-2163], the IC50 was in the range of 10 to 100 µM.
For the compound `O=C(Nc1cccc2c1C(c1cc(F)ccc1Cl)NC2=O)c1cc(B(O)O)cc(C(F)(F)F)c1` (stereo not shown) [Compound I-450], the IC50 is 1 to 10 µM.
Compound `O=C1N[C@@H](c2cc(F)ccc2Cl)c2c(NC(=O)N3C[C@H](O)c4ccccc43)cc(-c3ccc4ncnn4c3)cc21` (single isomer, unassigned) [Compound I-1576] showed an IC50 of 0.1 to 0.5 µM.
`O=C1NC(c2cc(F)ccc2Cl)c2c(NC(=O)c3cccn4ccnc34)cc(Br)cc21` (stereo not shown) [Compound I-562] had a half-inhibitory concentration (IC50) of 10 to 100 µM.
`N[C@H]1CCC[C@H](C(=O)Nc2cc(-c3ccc4ncnn4c3)cc3c2C(c2cc(F)ccc2Cl)NC3=O)C1` (mixture of isomers) [Compound I-1845] registered a concentration for half-maximal inhibition (IC50) of 10 to 100 µM.
Compound `CC(=O)N1CCCCC1C(=O)Nc1cc(-c2ccc3ncnn3c2)cc2c1C(c1cc(F)ccc1Cl)NC2=O` (mixture of isomers) [Compound I-1804] came in with a half-inhibitory concentration (IC50) of 10 to 100 µM.
As to `O=C(Nc1cc(OC2CN(C(=O)C(F)(F)F)C2)cc2c1C(c1cc(F)ccc1Cl)NC2=O)c1cc(F)cc(C(F)(F)F)c1` (racemic) [Compound I-1320], the IC50 lay within 0.1 to 0.5 µM.
`Cc1ccccc1C1NC(=O)c2cccc(NC(=O)c3cc(F)cc(Br)c3)c21` (stereo not shown) [Compound I-391] had an IC50 of 0.5 to 1 µM.
As for `N#CCOc1ncc(-c2cc(NC(=O)c3cc(F)cc(C(F)(F)F)c3)c3c(c2)C(=O)NC3c2cc(F)ccc2Cl)cn1` (stereo not shown) [Compound I-1530], the figure is at most 0.1 µM; as for `O=C(Nc1cc(Br)cc2c1C(c1cc(F)ccc1Cl)NC2=O)c1cc(F)ccc1Cl` (stereo not shown) [Compound I-791], 10 to 100 µM; as for `O=C(Nc1cccc2c1C(c1ccnc(O)c1)NC2=O)c1cc(F)cc(C(F)(F)F)c1` (stereo not shown) [Compound I-658], 10 to 100 µM.
As for `CCn1cc(-c2cc(NC(=O)c3cc(F)cc(C(F)(F)F)c3)c3c(c2)C(=O)NC3c2cc(F)ccc2Cl)ccc1=O` (stereo not shown) [Compound I-649], the figure is at most 0.1 µM; as for `N#Cc1cc2ncnn2cc1-c1cc(NC(=O)c2cc(F)cc(C(F)(F)F)c2)c2c(c1)C(=O)N[C@@H]2c1cc(F)ccc1Cl` [Compound I-1645], 1 to 10 µM; as for `N#Cc1cc(NC(=O)N2C[C@@](O)(C(F)(F)F)c3cc(F)ccc32)c2c(c1)C(=O)N[C@H]2c1cc(F)ccc1Cl` (single isomer, unassigned) [Compound I-2559], 1 to 10 µM.
`Cc1c(-c2cc(NC(=O)c3cc(F)cc(Cl)c3)c3c(n2)C(=O)NC3c2cc(F)ccc2Cl)cnn1C` (stereo not shown) [Compound I-381]: the IC50 is 0.1 to 0.5 µM.
On to `O=C1N[C@H](c2cc(F)ccc2Cl)c2c(NC(=O)N3CCc4cc(F)ccc43)cc(-c3cnn(C(F)F)c3)cc21` (single isomer, unassigned) [Compound I-2356], for which the IC50 lay within 1 to 10 µM.
As to `CCn1cc(-c2cc(NC(=O)c3cc(F)cc(C(F)(F)F)c3)c3c(n2)C(=O)N[C@@H]3c2cc(F)ccc2Cl)ccc1=O` [Compound I-614], the IC50 was 1 to 10 µM.
The compound `O=C1N[C@@H](c2cc(F)ccc2Cl)c2c(NC(=O)N3C[C@](O)(C(F)(F)F)c4cc(F)ccc43)ccnc21` (single isomer, unassigned) [Compound I-2701] displayed an IC50 of 1 to 10 µM.
Compound `O=C(Nc1cc(OC[C@@H]2CCO2)cc2c1[C@H](c1cc(F)ccc1Cl)NC2=O)c1cc(F)cc(C(F)(F)F)c1` (single isomer, unassigned) [Compound I-1517] came in with an IC50 of at most 0.1 µM.
As for `O=C1N[C@H](c2cc(F)ccc2Cl)c2c1cc(-c1ccc3ncnn3c1)cc2S(=O)(=O)Cc1ccccc1` (single isomer, unassigned) [Compound I-1905], the figure is 1 to 10 µM.
For the compound `O=C1NC(c2cc(F)ccc2Cl)c2c(NC(=O)N3CCc4ccncc43)cccc21` (stereo not shown) [Compound I-2182], the IC50 was in the range of 10 to 100 µM.
In the case of `O=C(Nc1cc(-c2cnc(-c3ncco3)nc2)cc2c1C(c1cc(F)ccc1Cl)NC2=O)c1cc(F)cc(C(F)(F)F)c1` (stereo not shown) [Compound I-1464], the IC50 is at most 0.1 µM.
Compound `CN(C)C(=O)OCc1cc(NC(=O)c2cc(F)cc(C(F)(F)F)c2)c2c(c1)C(=O)NC2c1cc(F)ccc1Cl` (stereo not shown) [Compound I-1532] registered an IC50 of at most 0.1 µM.
`Cc1cccc(C2(C(=O)Nc3cc(Br)cc4c3C(c3cc(F)ccc3Cl)NC4=O)CCCC2)c1` (stereo not shown) [Compound I-1639] displayed a half-inhibitory concentration (IC50) of 10 to 100 µM.
Consider `O=C1N[C@H](c2cc(F)ccc2Cl)c2c(NC(=O)N3C[C@@](O)(C(F)F)c4cc(F)ccc43)cccc21` (single isomer, unassigned) [Compound I-2556], for which the IC50 lay in the range of 0.5 to 1 µM.
As for `CC(C)(O)c1cc(NC(=O)c2cc(F)cc3cc[nH]c23)c2c(c1)C(=O)NC2c1cc(F)ccc1Cl` (stereo not shown) [Compound I-495], the IC50 is at most 0.1 µM.
Compound `Cc1ncc(-c2cc(NC(=O)c3cc(F)cc(Cl)c3)c3c(c2)C(=O)N[C@@H]3c2cc(F)ccc2Cl)cn1` [Compound I-895] gave an IC50 of 10 to 100 µM.
The same measure for `O=C(Nc1cc(-c2ccc3ncnn3c2)nc2c1C(C1CCOCC1)NC2=O)c1cc(F)cc(C(F)(F)F)c1` (stereo not shown) [Compound I-1705]: 10 to 100 µM; for `CC(C)(O)CN(CC(C)(C)O)c1cc(NC(=O)c2cc(F)cc(C(F)(F)F)c2)c2c(c1)C(=O)NC2c1cc(F)ccc1Cl` (stereo not shown) [Compound I-848]: 1 to 10 µM.

Source of the values: patent publication US12581252B2, “Substituted pyrrolo[3,4-b]pyridines as PI3K-α inhibitors” (Relay Therapeutics, Inc., priority 2020, dated 2026).
